The record followed here is PubChem BioAssay (NCI).

As usually defined, the TGI is the concentration giving total growth inhibition. Broadly, the GI50 is the concentration giving 50% growth inhibition.

The structures appear in SMILES notation.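 Test compounds were applied to cells in 96-well plates for 48 hours at 5 doses. GI50 marks 50% less growth. TGI is the concentration that stops growth completely.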 Some results are limits rather than exact numbers.

Holding throughout (assay): DTP human tumour cell line panel, 48 h
In assay [1] the test system is LXFL 529 NSCLC.
In assay [2] the test system is DMS 114 small cell lung.
The subject of assay [3] is M19-MEL melanoma.
In assay [4] the test system is DLD-1 colon.
Assay [5] relates to MDA-MB-231 breast.
Assay [6] concerns MCF7 breast.
In assay [7] the test system is DU-145 prostate.
Assay [8] relates to MDA-MB-435.
Assay [9] has as its system T-47D breast.
Assay [10] has as its system BT-549 breast.
Assay [11] relates to HOP-18 NSCLC.
The subject of assay [12] is SNB-78 CNS.

With `Cc1ccc(S(=O)(=O)OC(C=O)C(O)C(O)COC(c2ccccc2)(c2ccccc2)c2ccccc2)cc1` (configuration not stated), the TGI in [1] turned out to be 25.7 µM; in [2] it was 33.8 µM; in assay [3] it was 26.1 µM.

On to `CC(=O)OCC1OC(n2cnc3c(I)nc(I)nc32)C(OC(C)=O)C1OC(C)=O` (configuration not stated), for which the TGI in assay [1] turned out to be 26.1 µM; in assay [4], 24.2 µM; in assay [2], 13.1 µM; in assay [3], 12.2 µM.

On to `CC(=O)[CH-]C(=O)c1ccccc1.CC(=O)[CH-]C(=O)c1ccccc1.[O-]Cc1cccs1.[O-]Cc1cccs1.[Ti+4]`, for which the GI50 is 25.3 µM in assay [1] and 82 µM in assay [3]. Also, the total growth inhibition concentration (TGI) in [1] and in [3] was above 100 µM each time.

For the compound `S=c1nc(/C=C/c2ccc(Cl)c(Cl)c2)[nH][nH]1`, the GI50 was 79000 nM in assay [5]; above 100000 nM in assay [6]; above 100000 nM in assay [7]; 86700 nM in assay [8]; 77100 nM in [9]; 31300 nM in assay [10]. Also, the TGI is above 100 µM in assay [5]; above 100 µM in [6]; above 100 µM in assay [7]; above 100 µM in assay [4]; above 100 µM in assay [8]; 0.12 µM in assay [2]. Further, the TGI in [9] and in assay [10] was above 100 µM each time.

Turning to `COC(=O)C12C3C=CC(O3)C1C1C=CC2O1` (configuration not stated), the TGI in assay [1], in assay [11], in [4] and in assay [3] was above 100 µM in each case.

As for `Cc1cc(N(CCC#N)CCC#N)ccc1N=Nc1ccc([N+](=O)[O-])cc1`, the TGI in [12] is above 100 µM; in assay [2], 33 µM; in [3], above 100 µM.

For the compound `COc1cc(-c2[nH]ncc2CCCC(=O)Nc2ccccc2[N+](=O)[O-])ccc1O`, the TGI in assay [1] is above 100 µM; in [11], above 100 µM; in assay [4], above 100 µM; in assay [2], 93.2 µM.

Take `O=[N+]([O-])c1ccc(N=Nc2c(O)[nH]c3ccc(Br)cc23)c([N+](=O)[O-])c1`: the TGI in assay [1] is 13.9 µM; in assay [11], 4.69 µM; in [4], 20.4 µM; in assay [12], above 100 µM; in assay [3] it was 9.91 µM.

`COc1cc2nc(-c3ccc(Cl)cc3)cc(OCCCN3CCC(O)CC3)c2cc1OC`: the GI50 is 665 nM in [5]; 1600 nM in [6]; 2780 nM in assay [7]; 2050 nM in [8]; 2260 nM in assay [9]; 2790 nM in [10]. In addition, the TGI in assay [5] was found to be 3.52 µM; in [6], 3.79 µM; in assay [7], 25.9 µM; in assay [8] it was 5.2 µM; in assay [9], 12 µM; in assay [10], 13.3 µM.

Take `CC1(C)CCC(CN2CCN(c3ccc(C(=O)NS(=O)(=O)c4ccc(NCC5CCOCC5)c([N+](=O)[O-])c4)c(Oc4cnc5[nH]ccc5c4)c3)CC2)=C(c2ccc(Cl)cc2)C1`: the GI50 in assay [5] is 1780 nM; in assay [6], 3160 nM; in [7], 4470 nM; in assay [8], 2070 nM; in assay [9], 3250 nM; in [10], 3130 nM. Besides, the TGI in assay [5] came to 4 µM; in assay [6] it was 14.5 µM; in assay [7] it was 21.3 µM; in assay [8], 5.38 µM; in assay [9], 18.9 µM; in assay [10] it was 8.66 µM.

Turning to `COc1ccc(C(=O)Nc2ccccc2)cc1[N+](=O)[O-]`, the TGI in assay [1], in assay [4], in assay [12], in assay [2] and in assay [3] was above 100 µM in each case.

As to `Cc1nc(N=C(N)N)nc2ccc3ccccc3c12`, the GI50 is 1250 nM in [5]; 441 nM in assay [6]; 1530 nM in [7]; 1280 nM in assay [8]; 1120 nM in assay [9]; 2670 nM in assay [10]. Also, the TGI in assay [5] came out at 3.2 µM; in [6], 2.93 µM; in assay [7] it was 5.31 µM; in assay [8], 2.77 µM; in assay [9], 7.24 µM; in assay [10] it was 7.96 µM.

For the compound `COc1ccc(C(=O)Nc2ccccc2C#N)cc1`, the TGI in [11], in assay [4], in [12] and in assay [3] was above 100 µM each time.

On to `Cc1cc2c(C)nn(Cc3ccc(Cl)cc3Cl)c2c(C#N)c1C`, for which the TGI in [1], in [11], in assay [4], in assay [12] and in assay [3] was above 100 µM each time.

With `O=C1/C(=C\c2ccccc2)CN(C(=O)c2ccccc2F)C/C1=C\c1ccccc1`, the GI50 was 2000 nM in assay [5]; 449 nM in assay [6]; 2730 nM in assay [7]; 1130 nM in [8]; 2570 nM in assay [9]; 1860 nM in [10]. Further, the TGI in [5] came to 4.06 µM; in assay [6], 2.07 µM; in assay [7], 6.41 µM; in assay [8], 3.32 µM; in assay [9] it was 8.78 µM; in [10], 3.58 µM.

Turning to `COc1ccc(C2=NN(c3ccc(S(N)(=O)=O)cc3)C(c3ccc(Cl)cc3)C2)c(O)c1` (configuration not stated), the GI50 in [5] is 9890 nM; in assay [6] it was 2080 nM; in assay [7], 5880 nM; in assay [8] it was 3260 nM; in [9] it was 2400 nM; in assay [10], 4070 nM. Further, the TGI in assay [5] is 27.4 µM; in assay [6], 8.66 µM; in assay [7], 20.7 µM; in assay [8], 13.8 µM; in [9], 7.81 µM; in assay [10] it was 13.6 µM.

`C/C(=N\NC(=S)Nc1ccccc1)c1ccccn1`: the GI50 in assay [5] is 30.9 nM; in assay [6], 14.8 nM; in [7], 746 nM; in assay [8] it was 670 nM; in [9], 16.8 nM; in assay [10] it was 1870 nM. Besides, the TGI in [5] stood at 2.61 µM; in [6], 11.8 µM; in [7], 3.03 µM; in assay [8], 4.28 µM; in [9], 6.41 µM; in assay [10], 13.9 µM.
